One compound from publication PMC9068901, “Novel Inhibitors and Activity-Based Probes Targeting Trypsin-Like Serine Proteases” (Frontiers in Chemistry, 2022) can be followed below.

Test [1] concerns trypsin. In words: Activity-based probe labelling of trypsin (SDS-PAGE, Western blot, streptavidin-HRP). The class given is binding. Particulars: probe 50 μM, 30 min, 37°C. How it is done: (§1) Samples of recombinant protease (trypsin, human airway trypsin-like protease (HAT), matriptase, thrombin or neutrophil elastase, as indicated in the relevant figure legends) were treated with putative ABPs at a concentration of 50 μM, for 30 min, at 37°C. A control sample was prepared by treating recombinant protease with solvent control only. A further sample was prepared where Cbz-Arg^P(OPh)2 was added 30 min prior to the addition of the ABP under examination. […] All treated samples were then denatured with SDS-containing reducing treatment buffer (10 min at 95°C), followed by resolution by SDS-PAGE and subjected to Western blotting. Note, only stable covalent bonds between the ABP and protease active site would survive the harsh denaturing conditions involved in the resolution process. Resolved proteins were then transferred on to nitrocellulose membrane and labelled with streptavidin-HRP. The ABP-protease complex was then visualised following treatment with Luminata Forte HRP substrate.
For orientation: A western blot detects proteins with antibodies after separation by electrophoresis.

The target in a further test is T1, matriptase (Homo sapiens, UniProt Q9Y5Y6).
T1 construct: purchased R and D Systems
T1 sequence (Q9Y5Y6 615-855 limits assumed): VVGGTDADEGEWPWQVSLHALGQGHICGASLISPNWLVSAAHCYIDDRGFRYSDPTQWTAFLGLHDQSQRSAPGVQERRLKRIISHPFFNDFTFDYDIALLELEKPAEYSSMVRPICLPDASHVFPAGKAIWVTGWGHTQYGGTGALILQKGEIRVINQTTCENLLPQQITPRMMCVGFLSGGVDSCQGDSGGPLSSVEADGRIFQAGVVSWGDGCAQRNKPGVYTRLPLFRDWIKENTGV
In words: Activity-based probe labelling of matriptase. As to conditions: 30 min, 37°C; band at 26 kDa. The class given is binding. The method, then: as §1

In test [2] the test system is trypsin-like proteases in American cockroach extract. In words: ABP of American cockroach extract. As to conditions: probe 50 μM, 30 min, 37°C. The class given is binding, Periplaneta americana. The method, then:
(§2) Cockroach extract was probed with NAP858 (50 μM) (± heat inactivation at 95°C, for 10 min), for 30 min, at 37°C. Samples were then denatured with SDS-containing reducing treatment buffer (10 min/95°C), followed by resolution by SDS-PAGE and protein transfer unto nitrocellulose membrane which was incubated with streptavidin-HRP (1 in 20,000). The membrane was visualised following treatment with Luminata Forte HRP substrate.
(§3) Removal of endogenous biotinylated proteins present in the cockroach extract was performed in some experiments to improve clarity of the Western blots obtained. Neutravidin agarose beads were washed three times with 1 ml wash buffer (150 mM NaCl, 50 mM Tris, 1 mM EGTA, 1% (v/v) NP-40, pH 7.4) then resuspended in PBS (pH 7.4). These neutravidin beads were then used to bind and remove (pre-clear) endogenous biotinylated proteins present in the cockroach extract. This involved rotation of the bead-cockroach extract mix at 4°C for 30 min followed by centrifugation to enable collection of the pre-cleared supernatant fraction. The bead fraction containing bound endogenous biotinylated proteins from cockroach extract was discarded. The supernatant was then probed with NAP858 (50 μM) (±Cbz-Arg^P(OPh)2), for 30 min, at 37°C, followed by addition of freshly washed neutravidin agarose beads. […]

The next test addresses T2, thrombin (Homo sapiens, UniProt P00734).
T2 construct: purchased R and D Systems
In words: Activity-based probe labelling of thrombin. Particulars: 30 min, 37°C; heavy chain 31 kDa. It counts as binding. How it is done:
as §1

Test [3] addresses T3, human airway trypsin-like protease (HAT) (Homo sapiens, UniProt O60235).
T3 construct: purchased R and D Systems
Briefly: Activity-based probe labelling of HAT. It counts as binding. As to conditions: 30 min, 37°C; band at 25 kDa. How it is done:
as §1

For the next test, the system named is chymotrypsin. In words: Off-target fluorogenic substrate assay, chymotrypsin. It counts as biochemical. As to conditions: 50 μM (highest concentration tested). How it is done: (§4) Recombinant protease activities were assessed using the cognate fluorogenic substrates (final concentration 50 μM) as follows: trypsin (Cbz-Gly-Gly-Arg-AMC), neutrophil elastase (MeO-Suc-Ala-Ala-Pro-Val-AMC) and chymotrypsin (Suc-Ala-Ala-Pro-Phe-AMC). The assay in the presence or absence of protease inhibitors at a range of final concentrations was performed using a standard microtitre plate format. Substrate hydrolysis, at 37°C, was monitored over a 60 min period by measuring the rate of increase in fluorescence (at λex 360 nm, λem 480 nm) using a FLUOstar Optima microplate reader (BMG Labtech).

The next test concerns the target T4, neutrophil elastase (Homo sapiens, UniProt P08246).
T4 construct: purchased Calbiochem
T4 sequence (P08246 30-267): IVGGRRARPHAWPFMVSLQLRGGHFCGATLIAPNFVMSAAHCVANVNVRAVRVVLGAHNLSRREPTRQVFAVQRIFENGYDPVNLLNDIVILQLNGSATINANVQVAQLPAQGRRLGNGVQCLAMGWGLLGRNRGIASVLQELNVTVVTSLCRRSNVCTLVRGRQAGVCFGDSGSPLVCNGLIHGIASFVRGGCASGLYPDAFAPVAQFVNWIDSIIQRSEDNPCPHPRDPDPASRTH
In words: Off-target fluorogenic substrate assay, neutrophil elastase. The class given is biochemical. Particulars: 50 μM (highest concentration tested); read-out: inhibition of NE (decrease in activity) relative to controls. How it is done:
as §4

In a further test the target is human trypsin (Homo sapiens, UniProt P07477). In words: Determination of inhibitor constants against trypsin (progress curves, Cbz-Gly-Gly-Arg-AMC). The class given is biochemical. As to conditions: PBS pH 7.4, 37°C, ±S.E.M., three determinations. How it is done: as §4
A broad range of inhibitor concentrations were prepared from a 10 mM stock solution of the five test compounds (NAP851, NAP966, NAP987, NAP884 and NAP858) in N,N-dimethyformamide (DMF). The fluorogenic substrate, Cbz-Gly-Gly-Arg-AMC, was diluted in assay buffer (PBS, pH 7.4) and used at a fixed concentration of 50 μM. All inhibition assays were performed in microtitre plates maintained at 37°C in a final volume of 100 μL. The reaction was initiated by the addition of human trypsin (0.01 μg/well) and the rate of substrate hydrolysis continuously recorded at λex 360 nm, λem 480 nm using a FLUOstar Optima microplate reader (BMG Labtech). The resultant inhibition progress curve for the putative protease inhibitors were analysed according to the kinetic models developed by Tian and Tsou ([Tian and Tsou, 1982]) and Walker and Elmore ([Walker and Elmore, 1984]), for irreversible inhibitors, using GRAFIT (Erithacus Software) as described previously ([Ferguson et al., 2016]).

Test [4] deals with trypsin. In words: Off-target fluorogenic substrate assay, trypsin. The class given is biochemical. As to conditions: across the range of concentrations studied, vs chymotrypsin and NE. The method, then:
as §4

The subject of test [5] is trypsin-like proteases in German cockroach extract. In words: ABP of German cockroach extract. The class given is binding, Blattella germanica. Particulars: probe 50 μM, 30 min, 37°C. The method, then: as §2, §3

T3 sequence (O60235 187-418 limits assumed): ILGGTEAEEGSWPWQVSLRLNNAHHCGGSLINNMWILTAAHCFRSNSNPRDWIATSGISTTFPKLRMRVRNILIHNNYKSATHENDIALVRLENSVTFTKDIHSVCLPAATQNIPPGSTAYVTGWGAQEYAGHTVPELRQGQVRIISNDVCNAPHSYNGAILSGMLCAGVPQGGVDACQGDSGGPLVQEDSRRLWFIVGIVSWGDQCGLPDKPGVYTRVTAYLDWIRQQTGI
T3 sequence (O60235 44-186 partner limits assumed): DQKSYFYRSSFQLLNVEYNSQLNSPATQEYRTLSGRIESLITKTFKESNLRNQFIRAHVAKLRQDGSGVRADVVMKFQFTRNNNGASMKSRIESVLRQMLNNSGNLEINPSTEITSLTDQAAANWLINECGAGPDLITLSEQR

For `N=C(N)NCCCN(CC(=O)NCC(=O)NCC(=O)NCCCOCCOCCOCCCNC(=O)CCCC[C@@H]1SC[C@@H]2NC(=O)N[C@@H]21)C(=O)ON1C(=O)CCC1=O` [NAP858], the labelling of trypsin entry in the test on trypsin [1] is “labelling of a single protein band corresponding to the correct molecular mass of trypsin”. In addition, at matriptase, the labelling of matriptase entry is listed as “does indeed function as an AP for both proteases”. The “bands detected in American cockroach extract” value in test [2] is given as “single, intense band with an apparent molecular mass of 25 kDa”. The labelling of thrombin result at thrombin is on record as “can act as an AP for thrombin”. Further, in test [3], the “labelling of HAT” value is on record as “does indeed function as an AP for both proteases”. Moreover, the “inhibition of chymotrypsin relative to controls” value in the test on chymotrypsin was < 10%. Also, on neutrophil elastase, the inhibition (usually the percentage by which the read-out fell short of the control) at 50 µM is < 10%. Moreover, on human trypsin (50 μM Cbz-Gly-Gly-Arg-AMC, read-out: Ki), the Ki – broadly, the equilibrium dissociation constant of an inhibitor or competing ligand from its target – was found to be 226 nM. The k3 at human trypsin (first-order rate constant) is reported as 0.473 (±0.101) min^−1. Also, the k3/Ki on human trypsin (second-order rate constant) is 2.06 (±0.884) x 10^6 M^−1 min^−1. Besides, the “selectivity of action for trypsin” value in the test with trypsin [4] was “pronounced selectivity of action in inhibiting trypsin”. Moreover, the “bands detected in B. germanica extract” value in test [5] was “close doublet of protein bands of similar molecular mass (≈25 kDa)”.
